Experimental data as given in ChEMBL document CHEMBL3763065, “Anti-inflammatory and antioxidant properties of a novel resveratrol-salicylate hybrid analog” (Bioorg Med Chem Lett, 2016).
pIC50: −log10 of the molar value. The source made the active and inactive calls. The calls are words filed in the database; no cut-off is given here.

Key:
[1] = target: T1, Prostaglandin G/H synthase 1 (Ovis aries, UniProt P05979); assay: Inhibition of ovine COX-1 using arachidonic acid as substrate assessed as PGE2 production preincubated for 10 mins followed by substrate addition incubated for 2 mins by ELISA
T1 sequence (P05979 whole entry): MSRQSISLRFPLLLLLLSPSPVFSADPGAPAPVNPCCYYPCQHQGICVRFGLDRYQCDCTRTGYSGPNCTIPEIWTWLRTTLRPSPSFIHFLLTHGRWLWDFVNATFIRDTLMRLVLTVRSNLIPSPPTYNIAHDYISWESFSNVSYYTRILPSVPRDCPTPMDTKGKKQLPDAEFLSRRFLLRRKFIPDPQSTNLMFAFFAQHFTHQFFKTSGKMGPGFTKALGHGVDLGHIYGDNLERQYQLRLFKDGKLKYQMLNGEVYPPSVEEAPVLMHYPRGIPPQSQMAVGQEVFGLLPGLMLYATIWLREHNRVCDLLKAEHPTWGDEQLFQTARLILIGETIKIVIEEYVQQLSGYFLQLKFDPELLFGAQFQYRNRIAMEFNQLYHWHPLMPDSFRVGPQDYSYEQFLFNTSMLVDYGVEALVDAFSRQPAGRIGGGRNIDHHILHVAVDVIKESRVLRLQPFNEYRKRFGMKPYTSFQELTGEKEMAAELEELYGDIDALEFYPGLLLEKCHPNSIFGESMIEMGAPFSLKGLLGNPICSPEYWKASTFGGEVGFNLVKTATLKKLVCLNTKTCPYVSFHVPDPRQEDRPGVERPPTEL

[2] = target: T2, Prostaglandin G/H synthase 2 (Homo sapiens, UniProt P35354); assay: Inhibition of human recombinant COX-2 using arachidonic acid as substrate assessed as PGE2 production preincubated for 10 mins followed by substrate addition incubated for 2 mins by ELISA
T2 sequence (P35354 whole entry): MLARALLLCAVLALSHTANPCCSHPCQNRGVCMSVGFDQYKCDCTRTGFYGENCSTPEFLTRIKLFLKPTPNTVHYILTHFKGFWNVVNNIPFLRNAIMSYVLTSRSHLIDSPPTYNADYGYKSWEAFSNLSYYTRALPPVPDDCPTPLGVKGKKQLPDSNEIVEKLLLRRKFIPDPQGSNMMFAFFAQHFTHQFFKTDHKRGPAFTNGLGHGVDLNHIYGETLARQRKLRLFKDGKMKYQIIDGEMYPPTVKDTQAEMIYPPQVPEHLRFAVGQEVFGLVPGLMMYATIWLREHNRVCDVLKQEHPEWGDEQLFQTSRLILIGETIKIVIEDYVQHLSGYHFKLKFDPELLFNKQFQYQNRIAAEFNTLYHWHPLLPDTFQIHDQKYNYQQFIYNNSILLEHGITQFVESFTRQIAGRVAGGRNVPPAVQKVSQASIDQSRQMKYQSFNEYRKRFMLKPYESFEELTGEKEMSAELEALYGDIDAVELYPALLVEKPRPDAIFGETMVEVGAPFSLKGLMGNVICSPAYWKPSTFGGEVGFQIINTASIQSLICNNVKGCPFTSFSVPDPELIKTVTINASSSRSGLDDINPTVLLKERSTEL

[3] = Antioxidant activity assessed as DPPH free radical scavenging activity at 200 uM after 30 mins by spectrophotometric analysis; format: physicochemical; settings: 0.5 h
[4] = Selectivity index ratio of IC50 for ovine COX-1 to IC50 for human recombinant COX-2
[5] = Antioxidant activity assessed as DPPH free radical scavenging activity at 0.06 to 200 uM after 30 mins by spectrophotometric analysis; format: physicochemical; settings: 0.5 h
[6] = system: Mus musculus; assay: Antiinflammatory activity in BALB/c mouse paw edema model assessed as decrease in myeloperoxidase activity in paw exudates at 20 mg/kg, po administered 30 mins prior to carrageenan challenge measured after 4 hrs by microplate reader analysis relative to control; format: functional; set-up: scale not given: the % may be the effect or the level left
[7] = system: Mus musculus; assay: Antiinflammatory activity in carrageenan-induced BALB/c mouse peritonitis model assessed as decrease in number of leukocytes in peritoneal exudates administered via oral gavage 30 mins prior to carrageenan challenge measured after 4 hrs; format: functional, organism-based
[8] = system: Mus musculus; assay: Antiinflammatory activity in carrageenan-induced BALB/c mouse peritonitis model assessed as decrease in nitric oxide level in peritoneal exudates at 10 to 20 mg/kg administered via oral gavage 30 mins prior to carrageenan challenge measured after 4 hrs by Griess method; format: functional, organism-based
[9] = system: Mus musculus; assay: Antiinflammatory activity in carrageenan-induced BALB/c mouse paw edema model assessed as decrease in paw volume at 10 mg/kg, po administered 30 mins prior to carrageenan challenge measured after 6 hrs by plethysmometric analysis relative to control; format: functional; set-up: scale not given: the % may be the effect or the level left
[10] = system: Mus musculus; assay: Antiinflammatory activity in carrageenan-induced BALB/c mouse paw edema model assessed as decrease in paw volume administered orally 30 mins prior to carrageenan challenge measured after 1 to 6 hrs by plethysmometric analysis; format: functional, organism-based
[11] = system: Mus musculus; assay: Antiinflammatory activity in carrageenan-induced BALB/c mouse paw edema model assessed as decrease in paw volume at 20 mg/kg, po administered 30 mins prior to carrageenan challenge measured after 6 hrs by plethysmometric analysis relative to control; format: functional; set-up: scale not given: the % may be the effect or the level left
[12] = system: Mus musculus; assay: Antiinflammatory activity in BALB/c mouse paw edema model assessed as decrease in myeloperoxidase activity in paw exudates at 10 mg/kg, po administered 30 mins prior to carrageenan challenge measured after 4 hrs by microplate reader analysis relative to control; format: functional; set-up: scale not given: the % may be the effect or the level left
[13] = system: HepG2; assay: Antioxidant activity in human HepG2 cells assessed as reduction of H2O2-induced ROS level at 10 uM pretreated for 20 hrs followed by H2O2 stimulation for 30 mins by DCF-DA-based fluorescence analysis relative to control; format: functional; set-up: scale not given: the % may be the effect or the level left
[14] = system: HepG2; assay: Cytotoxicity against human HepG2 cells at 2.5 to 10 uM by MTT assay; format: cell-based; settings: hepg2, 10 µM
[15] = system: Mus musculus; assay: Antiinflammatory activity in carrageenan-induced BALB/c mouse peritonitis model assessed as decrease in number of leukocytes in peritoneal exudates at 10 to 20 mg/kg administered via oral gavage 30 mins prior to carrageenan challenge measured after 4 hrs; format: functional, organism-based

Q: What does the source list for O=C(O)c1cc(/C=C/c2ccc(O)cc2)ccc1O?
A: pIC50 [1]: 3.38; pIC50 [2]: < 3.30; Activity [3]: Active

Q: With O=C(O)c1cc(/C=C/c2cc(O)cc(O)c2)ccc1O as the compound, how does the pIC50 [1] read?
A: 5.49

Q: And the pIC50 [2]?
A: 4.99

Q: And the Ratio IC50 [4]?
A: 0.31

Q: And the Activity [5]?
A: Active

Q: For COC(=O)c1cc(/C=C/c2cc(O)cc(O)c2)ccc1O, which Activity [6] is on record?
A: 60%

Q: What about the pIC50 [1] of the same compound?
A: 5.39

Q: And the pIC50 [2]?
A: 6.00

Q: And the Ratio IC50 [4]?
A: 4.1

Q: And the Activity [7]?
A: Dose-dependent effect

Q: And the Activity [8]?
A: inactive

Q: And the Activity [9]?
A: 59%

Q: And the Activity [10]?
A: Dose-dependent effect

Q: And the Activity [11]?
A: 74%

Q: What about the Activity [12] of the same compound?
A: 60%

Q: And the Activity [13]?
A: 33%

Q: And the Activity [14]?
A: Non-toxic

Q: What about the Activity [5] of the same compound?
A: Active

Q: For Oc1ccc(/C=C/c2cc(O)cc(O)c2)cc1 [RESVERATROL], which Activity [6] is on record?
A: 53%

Q: What about the Activity [15] of the same compound?
A: Active

Q: What about the Activity [8] of the same compound?
A: inactive

Q: And the Activity [9]?
A: 34%

Q: What about the Activity [10] of the same compound?
A: Dose-dependent effect

Q: What about the Activity [11] of the same compound?
A: 52%

Q: And the Activity [13]?
A: 25%

Q: And the Activity [14]?
A: Non-toxic

Q: And the Activity [5]?
A: Active

Q: Which results are given for COc1ccc(/C=C/c2cc(OC)cc(OC)c2)cc1 [TRISMETHOXYRESVERATROL]?
A: Activity [6]: inactive; pIC50 [1]: 5.91; pIC50 [2]: 5.78; Ratio IC50 [4]: 0.74; Activity [7]: Dose-dependent effect; Activity [8]: inactive; Activity [9]: 19%; Activity [10]: Dose-dependent effect; Activity [11]: 34%; Activity [13]: 42%; Activity [14]: Non-toxic
